The subject of data set [1] is MCF7. Put plainly: Cytotoxicity against human MCF7 cells. In kind it is cell-based.
Data set [2] has as its system Mycobacterium tuberculosis. Briefly: Antimycobacterial activity against Mycobacterium tuberculosis H37Rv ATCC 27294. Type of data set: functional.
Data set [3] relates to MCF7. Briefly: Cytotoxicity against human MCF7 cells at 650 uM. To be noted: mcf7, 650 µM. Type of data set: cell-based.
The test system of data set [4] is Mycobacterium tuberculosis. Briefly: Antimycobacterial activity against Mycobacterium tuberculosis H37Rv ATCC 27294 at 650 uM. Type of data set: functional, organism-based.

Each structure is given as a SMILES string. Values after ≈ are worked out from the molar mass of the structure shown. Active and inactive are the calls of the source.

`COC(=O)[C@]12CCCC(C)(C)[C@@H]1CCc1cc(C(C)C)c(OC)c(O)c12`: the IC50 (usually the concentration that inhibits the measured activity by half) with MCF7 [1] was 69 µM. The MIC (as a rule, the smallest concentration in the dilution series that meets the test's criterion for growth inhibition) in data set [2] worked out at 28 µM (≈ 10.1 µg/mL).

Turning to `CC(C)c1cc2c(c(O)c1O)[C@@]13CCCC(C)(C)[C@@H]1C[C@@H]2OC3=O` [CARNOSOL], the Activity entry with MCF7 [3] is on record as “Not Active”. Further, the outcome in data set [4] was inactive.

For the compound `C=C/C(C)=C/C[C@H]1C(=C)CC[C@@H]2[C@]1(C)C[C@@H](O)C[C@@]2(C)C(=O)O`, the Activity result in the data set with MCF7 [3] is “Not Active”. Also, in data set [2], the MIC is 157 µM (≈ 50 µg/mL).

The compound `C=C/C(C)=C/C[C@H]1C(=C)CC[C@H]2[C@](C)(CO)C[C@H](O)C[C@]12C` displayed an IC50 with MCF7 [1] of 82 µM. In data set [4], the outcome was inactive.
